According to patent US11358977B2, “Deuterated pyridone amides and prodrugs thereof as modulators of sodium channels” (VERTEX PHARMACEUTICALS INCORPORATED, priority 2017, dated 2022):

Key:
[1] = In vitro microsomal metabolic stability assay, dog; assay type: in vitro ADME; settings: dog liver microsomes 0.25 mg/mL, 1.0 μM compound, NADPH
Description: (§1) Materials. Rat, Dog, Monkey and Human liver microsomes (20 mg/mL) were obtained from Xenotech, LLC (Lenexa, Kans.). P-nicotinamide adenine dinucleotide phosphate, reduced form (NADPH), magnesium chloride (MgCl2), and dimethyl sulfoxide (DMSO) were purchased from Sigma-Aldrich.
(§2) Methods. […] The 10 mM stock solutions were diluted to 100 μM in DMSO. In each cluster polypropylene tube, 190.7 μL of 100 mM phosphate buffer, pH 7.4 was added, then 2.5 μL of liver mocrosomes (20 mg/mL, rat, dog, monkey or human) was added, then a 2 μL aliquot of the 100 μM test compound was added, and the mixture was pre-warmed for 10 minutes. Reactions were initiated by addition of 4.8 μL of pre-warmed NADPH solution (100 mM in 100 mM phosphate buffer). The final reaction volume was 200 μL and contained 0.25 mg/mL rat, dog, monkey or human liver microsomes, 1.0 μM test compound, and 2.4 mM NADPH in 0.1 M potassium phosphate buffer, pH 7.4. The reaction mixtures were incubated at 37° C., and the reactions were quenched at 0, 15, 30 and 60 minutes by adding 200 μL of ice-cold quench solution (ACN:MeOH:0.1% formic acid in water 2:2:1) containing internal standard, n=3 per time point. The tubes were centrifuged and supernatants were analyzed for amounts of the test compound remaining by LC-MS/MS. The HPLC system included a Phenomenex Luna C8 column, 3 micron, 2 mm diameter×30 mm long eluted with a gradient mobile phase consisting of 0.1% formic acid in water or in acetonitrile. The analytes were detected by MS/MS with Electrospray Ionization (ESI) in the mode of multiple reaction monitoring (MRM). The injection volume was 10 μL.

[2] = In vitro microsomal metabolic stability assay, human; assay type: in vitro ADME; settings: human liver microsomes 0.25 mg/mL, 1.0 μM compound, NADPH
Description: as §1, §2

[3] = In vitro microsomal metabolic stability assay, rat; assay type: in vitro ADME; settings: rat liver microsomes 0.25 mg/mL, 1.0 μM compound, NADPH
Description: as §1, §2

[4] = In vitro microsomal metabolic stability assay, monkey; assay type: in vitro ADME; settings: monkey liver microsomes 0.25 mg/mL, 1.0 μM compound, NADPH
Description: as §1, §2

[5] = In vivo pharmacokinetic study, rat IV; set-up: species or system Male Sprague Dawley rats
Description: General Procedures. Concentrations of the test compounds in plasma were determined using a high performance liquid chromatography/tandem mass spectrometry (HPLC/MS/MS) method. The test compounds along with the internal standard (IS) were extracted from plasma (20 μL) by direct protein precipitation with acetonitrile (1:25 ratio of plasma/acetonitrile). After centrifugation, the supernatant extract (10 μL) was injected onto the LC/MS/MS system. The HPLC system included a Phenomenex Luna C8 column, 3 micron, 2 mm diameter×30 mm long eluted with a gradient mobile phase consisting of 0.1% formic acid in water or in acetonitrile. The analytes were detected by MS/MS with Electrospray Ionization (ESI) in the mode of multiple reaction monitoring (MRM). The lower limit of quantitation (LLOQ) was 1.00 ng/mL. The linear range of the assay was from 1 to 3000 ng/mL. The assay accuracy was within 20% of the nominal values.
Plasma concentration-time profiles of the test compounds were analyzed by noncompartmental pharmacokinetic methods using PK module in Watson, Version 7.4.2 (Thermo Scientific). Pharmacokinetic parameters including AUCa11, AUC0-∞, C0, Cl, Vss and t1/2 were determined.
Descriptive statistical data of plasma concentrations and pharmacokinetic parameter estimates were calculated, including the mean, standard deviation (SD), and coefficient of variation (% CV) using Microsoft Excel 2010.
Rat IV Study. Compounds 7 and 10 were administered simultaneously in a single intravenous bolus to Male Sprague Dawley rats (n=3) via jugular cannula. The nominal dose of each compound was 0.5 mg/kg. The cassette dosing solution was formulated in D5W with additives Animals had free access to food and water before and after dosing. Blood samples (approximately 0.25 mL each) were collected via a carotid artery catheter prior to dosing and at 0 (predose), 5 min, 10 min, 0.25, 0.5, 1, 2, 4, 8, 12, 24 hours post dose. Each blood sample was collected into a tube that was kept on wet ice and contained potassium EDTA as the anticoagulant. Plasma was separated and stored at approximately −70° C. until analysis.
Plasma samples and dosing solutions were analyzed using a liquid chromatography/tandem mass spectrometry (LC/MS/MS) method to determine the concentrations of Compounds 7 and 10 with a lower limit of quantitation (LLOQ) of 1.00 ng/mL. The average plasma concentrations of Compounds 7 and 10 are plotted in FIG. 5 and are also presented in tabular form in Table 5.
Plasma concentration vs. time data were subjected to noncompartmental pharmacokinetic (PK) analysis. To determined the measured dose of each compound, the dose formulation (50 μL) was aliquoted into a cluster tube at the time of dosing. Then 450 μL of DMSO was added to the tube to dilute it 10×. Then the diluted dosing solution was spiked into rat blank plasma with 100× dilution. The resulting plasma sample was analyzed along with the plasma samples collected from rats that were dosed with the compounds, using the same LC/MS/MS method.

[6] = male, Sprague Dawley, plasma, rat IV bolus, cassette, nominal 0.5 mg/kg, noncompartmental analysis

## [2H]C([2H])([2H])c1cc(F)ccc1Oc1cc(C(F)(F)F)ccc1C(=O)Nc1cc[nH]c(=O)c1 [Compound 7, 2-(4-fluoro-2-(methyl-d3)phenoxy)-N-(2-oxo-1,2-dihydropyridin-4-yl)-4-(trifluoromethyl)benzamide]
[1]; 0 min
  % remaining: 100%
[1]; 15 min
  % remaining: 86.1%
[1]; 30 min
  % remaining: 85.8%
[1]; 60 min
  % remaining: 87.5%
[2]; 0 min
  % remaining: 100%
[2]; 15 min
  % remaining: 109%
[2]; 30 min
  % remaining: 105%
[2]; 60 min
  % remaining: 106%
[3]; 0 min
  % remaining: 100%
[3]; 15 min
  % remaining: 109%
[3]; 30 min
  % remaining: 105%
[3]; 60 min
  % remaining: 92.2%
[4]; 0 min
  % remaining: 100%
[4]; 15 min
  % remaining: 97.0%
[4]; 30 min
  % remaining: 93.3%
[4]; 60 min
  % remaining: 92.5%
[5]; in rats, IV
  clearance compared with Compound 10: lower
  t1/2 compared with Compound 10: longer
[5]; male, Sprague Dawley, plasma, rat IV bolus, cassette, nominal 0.5 mg/kg, 0.083 hours
  concentration at 0.083 h: 420 ng/mL
[5]; male, Sprague Dawley, plasma, rat IV bolus, cassette, nominal 0.5 mg/kg, 0.167 hours
  concentration at 0.167 h: 399 ng/mL
[5]; male, Sprague Dawley, plasma, rat IV bolus, cassette, nominal 0.5 mg/kg, 0.25 hours
  concentration at 0.25 h: 371 ng/mL
[5]; male, Sprague Dawley, plasma, rat IV bolus, cassette, nominal 0.5 mg/kg, 0.5 hours
  concentration at 0.5 h: 301 ng/mL
[5]; male, Sprague Dawley, plasma, rat IV bolus, cassette, nominal 0.5 mg/kg, 1 hour
  concentration at 1 h: 256 ng/mL
[5]; male, Sprague Dawley, plasma, rat IV bolus, cassette, nominal 0.5 mg/kg, 2 hours
  concentration at 2 h: 208 ng/mL
[5]; male, Sprague Dawley, plasma, rat IV bolus, cassette, nominal 0.5 mg/kg, 4 hours
  concentration at 4 h: 154 ng/mL
[5]; male, Sprague Dawley, plasma, rat IV bolus, cassette, nominal 0.5 mg/kg, 8 hours
  concentration at 8 h: 91.3 ng/mL
[5]; male, Sprague Dawley, plasma, rat IV bolus, cassette, nominal 0.5 mg/kg, 12 hours
  concentration at 12 h: 47.6 ng/mL
[5]; male, Sprague Dawley, plasma, rat IV bolus, cassette, nominal 0.5 mg/kg, 24 hours
  concentration at 24 h: 7.57 ng/mL
[5]; [6]
  AUC: 937 ng·h/mL
  AUC(0-inf): 961 ng·h/mL
  C0: 211 ng/mL
  clearance: 8.07 mL/min/kg
  half-life: 4.4 h
[5]; male, Sprague Dawley, plasma, rat IV bolus, cassette, nominal 0.5 mg/kg, noncompartmental analysis, read-out: Vss
  Vd: 3 L/kg
